Laboratory results published in patent US7199259B2, “Resolution of α-(phenoxy)phenylacetic acid derivatives” (Metabolex, Inc., priority 2003, dated 2007).
Each block holds one molecule with its values, some of them ahead of it.

Key:
[1] = Solubility of diastereomeric CPTA-CAF D base salts in 2-propanol; type: physicochemical; details: for Wt % in solution: slurry held overnight
Description: Samples of (−)-CPTA CAF D Base and (+)-CPTA CAF D Base (>98% ee) were added to 2-propanol in the amounts shown in Table 8, and mixed using an ultrasonic bath. All samples remained slurries. The slurries were held overnight at the temperature listed, then samples of the supernates were removed and analyzed by quantitative HPLC analysis to determine the CPTA concentration. Additionally, 8.00 g of (−)-CPTA CAF D Base salt required 54.2 g of 2-propanol for solution at 82° C. (14.7 wt %).

[2] = Solubility of CPTA CAF D-Base salts in 2-propanol containing 11% free CPTA; type: physicochemical; details: 2-propanol with 11% free CPTA, FIG. 3
Description: “Solvent” was prepared by dissolving 2.40 g of racemic CPTA in 19.42 g of 2-propanol (Fisher HPLC Grade) or 4.90 g of racemic CPTA in 31.4 g of ethanol. The respective concentrations of CPTA in solution were 11.0% and 13.5%. Solubility of the (−)-CPTA·CAF D-Base Salt (i.e., (−)-Salt) or (+)-CPTA.CAF D-Base Salt (i.e., (+)-Salt) was determined by a gravimetric method. At a given temperature, a portion of the supernatant liquid from a saturated solution was remove to a vial of known weight. The solution weight was determined, and the volatile solvent was evaporated with a purge of nitrogen. The solid was further dried to constant weight in a vacuum oven at about 50° C./1 mm Hg. The vial was re-weighed to determine the loss of volatile solvent and weight of solid remaining. From this, the amount of dissolved CPTA from the “solvent” could be calculated. Subtracting the weight of total solid from the CPTA gave the weight of soluble salt in the solvent.

[3] = Solubility of racemic CPTA sodium salt in water; type: physicochemical; details: sodium hydroxide added to pH about 12.6 versus pH about 9.5
Description: A 100-mL water jacketed resin pot with a magnetic stirrer was connected to a recirculating water bath and charged with 3.48 g of the racemic CPTA sodium salt and 20.0 g of water. The bath temperature was warmed to 35° C., and the slurry was stirred for one hour. The agitator was shut off, and the solid was allowed to settle for 30 min. The pH was 9.4. A 0.3036 g-sample of the supernate was removed and diluted to 25.00 mL with acetonitrile, and the solution was assayed by HPLC analysis. Analysis was repeated at 47° C. and at 19° C. An additional 3.01 g of CPTA sodium salt was added to maintain a slurry at the higher temperature, and 25 g of water was added to give a thinner slurry at the lower temperature. The pH was increased to 12.7 at ambient temperature by the addition of 50% aqueous sodium hydroxide, and the analysis was continued at 13.5, 25, 34, and 42° C.

cytochrome P450 2C9 = cytochrome P450 2C9 (Homo sapiens, UniProt P11712); details: cited from earlier work
[4] = Solubility in methylene chloride; type: physicochemical

Sequence of cytochrome P450 2C9 (P11712 whole entry): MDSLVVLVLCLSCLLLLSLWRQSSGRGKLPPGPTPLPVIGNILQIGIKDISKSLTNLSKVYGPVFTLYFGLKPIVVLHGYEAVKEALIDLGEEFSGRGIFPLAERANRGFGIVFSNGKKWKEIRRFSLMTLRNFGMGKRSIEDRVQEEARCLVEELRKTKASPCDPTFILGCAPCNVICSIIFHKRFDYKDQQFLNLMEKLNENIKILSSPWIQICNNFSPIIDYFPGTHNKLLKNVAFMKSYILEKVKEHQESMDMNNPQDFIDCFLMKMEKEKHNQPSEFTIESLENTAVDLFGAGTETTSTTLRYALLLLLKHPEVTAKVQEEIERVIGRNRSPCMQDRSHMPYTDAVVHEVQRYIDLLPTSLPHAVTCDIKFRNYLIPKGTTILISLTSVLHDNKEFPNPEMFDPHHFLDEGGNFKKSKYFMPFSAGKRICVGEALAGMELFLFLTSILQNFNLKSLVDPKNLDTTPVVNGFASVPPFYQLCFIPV

Wt % in solution ([1]; 7.8 °C): 0.376 Wt %
Wt % in solution ([1]; 19.4 °C): 0.688 Wt %
Wt % in solution ([1]; 45.3 °C): 2.35 Wt %
solubility in 2-propanol (amount required for solution) ([1]; 82 °C, 8.00 g salt in 54.2 g 2-propanol): 14.7 wt %
solubility in 2-propanol relative to the (+)-CPTA form ([1]; FIG. 1 profiles): approximately three times less soluble
solubility in 2-propanol containing 11% free CPTA versus pure 2-propanol [2]: greater solubility
Compound: NC(CO)C(O)c1ccc([N+](=O)[O-])cc1.O=C(O)C(Oc1cccc(C(F)(F)F)c1)c1ccc(Cl)cc1 (single isomer, unassigned; (-)) [(−)-CPTA CAF D Base Salt]

solubility in methylene chloride [4]: less than 3.4%
Compound: O=C(O)C(Oc1cccc(C(F)(F)F)c1)c1ccc(Cl)cc1 (racemic) [halofenic acid, (4-chlorophenyl)(3-trifluoromethylphenoxy)acetic acid]
inhibition of cytochrome P450 2C9 (cytochrome P450 2C9; racemic acid): inhibits

Wt % in solution ([1]; 8.5 °C): 1.32 Wt %
Wt % in solution ([1]; 20.0 °C): 1.85 Wt %
Wt % in solution ([1]; 45.8 °C): 6.03 Wt %
solubility in 2-propanol containing 11% free CPTA versus pure 2-propanol [2]: greater solubility
Compound: NC(CO)C(O)c1ccc([N+](=O)[O-])cc1.O=C(O)C(Oc1cccc(C(F)(F)F)c1)c1ccc(Cl)cc1 (single isomer, unassigned; (+)) [(+)-CPTA CAF D Base Salt]

Further lines, the molecule ahead of its results:

Compound: O=C([O-])C(Oc1cccc(C(F)(F)F)c1)c1ccc(Cl)cc1.[Na+] (racemic) [sodium salt of racemic CPTA]
aqueous solubility, effect of raising pH [3]: decreased the aqueous solubility

Compound: O=C(O)C(Oc1cccc(C(F)(F)F)c1)c1ccc(Cl)cc1 (single isomer, unassigned; (-)) [(−)-enantiomer of halofenic acid]
ability to inhibit cytochrome P450 2C9 compared to the (+)-enantiomer (cytochrome P450 2C9; relative to (+)-enantiomer of halofenic acid): about twenty-fold less active
